Several values for one entry are separate records, joined by “and”; a condition that tells them apart may be missing. Identical values can stand only once. Entries after “also recorded” stand apart in the source; their conditions may differ.
How the values were obtained:
Format in all cases: in vivo
[1] = system: ApoE^−/− mice; assay: Atherosclerotic plaque formation in ApoE−/− mice on atherogenic diet, en face Oil Red O staining of whole aorta (preventive treatment); conditions: 100 μg steroid/mouse/day in tap-water, 8 weeks, vs tap water control
Excerpt: (§1) All the animal experiments were approved by the guidelines from Directive 2010/63/EU of the European Parliament on the protection of animals used for scientific purposes. Animal experiments performed in this study were approved by the Scientific and Research Ethics Committee of the Scientific Council of Health of the Hungarian Government under the registration number of DE MÁB/157-5/2010 and are reported in accordance with the ARRIVE guidelines. C57BL/6 ApoE^−/− mice (The Jackson Laboratory; B6.129P2 Apoetm1Unc/J; RRID: IMSR_JAX: 002052) were maintained at the University of Debrecen under specific pathogen-free conditions in accordance with guidelines from Institutional Ethical Committee. To induce atherosclerotic plaque formation, standard chow diet was changed to atherogenic diet (15% fat, 1.25% cholesterol, ssniff Spezialdiäten GmbH, Soest, Germany) at the age of 8 weeks. Mice were randomly divided into two groups and parallelly with the atherogenic diet, mice received tap-water or DHEA-derived steroid (100 μg steroid/mouse/day) in tap-water. The DHEA-derived steroid was replaced every day. Aortas were harvested after 8 weeks of treatment. All mice were euthanized by a predictable and controllable administering of slow-fill compressed CO2 asphyxiation. Atherogenic food composition (high-fat diet): Crude Nutrients (%): Crude Protein 19%; crude fat 15.2%; crude fiber 3.4%; crude ash 6.3%; starch 25.6%; sugar 11.2%; Additives (per kg): vitamin A 15,000 IU; vitamin D3 1,000 IU; vitamin E 110 mg; vitamin K3 5 mg; vitamin C 0 mg; copper 13 mg.
(§2) Aortas were dissected from the aortic arch to the iliac bifurcation. After that, the fatty tissue was carefully removed under a stereomicroscope (M125; Leica Biosystems Nussloch GmbH). […] 0.07 g ORO powder was dissolved in 25 mL methanol and mixed for 10 min on a magnetic stirrer. Finally, 10 mL 1 mol/L NaOH was added to the ORO solution and filtered it. Images were taken with the camera (Nikon D3200; Nikon Corp., Japan) and whole aorta plaque area was analyzed with ImageJ 1.49 software.

[2] = system: ApoE^−/− mice; assay: Aortic valve calcification in ApoE−/− mice on high-fat diet, von Kossa staining (preventive treatment); conditions: 8 weeks; for calcification / mineralization of aortic valve (von Kossa): treatment in drinking water, vs tap water
Excerpt: as §1
(§3) Immunohistochemistry from the aortic root was performed on formalin-fixed, paraffin-embedded tissue sections. 4 μm slides were then deparaffinated using xylol and ethanol. The serial sections were stained with Gill Hematoxylin solution (Merck) followed by eosin counterstaining or with von Kossa. For digital documentation, the stained specimens were scanned with a Mirax Midi scanner (3D Histech, Budapest, Hungary). Macroscopic pictures of the arteries were taken with Nikon D3200 camera (Nikon Corp.; Minato, Tokyo, Japan).

[3] = system: ApoE^−/− mice; assay: Survival of ApoE−/− mice during treatment; conditions: atherogenic diet; for mouse death before the end of the experiment / survival / mortality of mice: 8 weeks treatment
Excerpt: as §1

[4] = system: H2S; assay: Sulfide (H2S) level of mice plasma, zinc precipitation assay
Excerpt: as §1
Sulfide levels were measured with zinc precipitation method based upon developed by Gilboa-Garber [Gilboa-Garber N. 1971] and modified by A. D. Ang et al. [Ang A D, et al. 2012]. The human carotid artery was homogenized under liquid nitrogen in 7.4 pH PBS and sonicated it. […] After 10 min the absorbance of the generated methylene blue (MB) was measured with a spectrophotometer at 667 nm. Since during the reaction 1 mol/L MB formed from 1 mol/L sulfide, the concentration was determined by the MB's extinction coefficient (30 200 M 1 cm 1). […]

[5] = system: ApoE^−/− mice; assay: Reversal of already formed atherosclerotic lesion in ApoE−/− mice, Oil Red O (therapeutic treatment); conditions: for already formed atherosclerotic lesion (plaque size, Oil Red O): atherogenic diet 4 or 6 weeks, then chop diet plus S2 in water for 4 or 8 weeks, vs tap water, sodium salt
Excerpt: (§4) In the further part of the present work, it was examined whether the compounds of the invention have positive therapeutic effect, too. In the above-mentioned animal model, the present inventors developed during eight weeks real atherosclerosis, and for an additional eight weeks animals were given S2 compound (100 micrograms per day per animal). Control mice got pure drinking water. At the end of experiment the size and number of sclerotic plaques, the calcification of heart valves and the amount of hydrogen sulfide was measured. […] This means the compounds of the invention have not only preventive, but also therapeutic effect.
as §2
(§5) From a pharmacological point of view to the best of inventors' knowledge, there is no medicine in the market to reverse atherosclerosis and calcification of vessels. Current drugs only slow down the progression of atherosclerosis. Therefore, the present inventors examined the possibility of S2 steroid treatment to reverse the already formed atherosclerotic lesion and calcification. In this experiment the present inventors kept the mice on atherogenic diet for 4 or 6 weeks for development of atherosclerotic lesion and calcification. After that the present inventors changed the atherogenic diet to chop diet and they added S2 steroid to the mice's water for 4 weeks and 8 weeks. Control group got tap water only.

[6] = system: ApoE^−/− mice; assay: Reversal of already formed aortic valve calcification in ApoE−/− mice, von Kossa (therapeutic treatment); conditions: for already formed aortic valve extracellular matrix mineralization (von Kossa): high-fat diet 6 weeks, then chop diet plus S2 in tap water for 4 weeks, vs tap water, sodium salt
Excerpt: as §4, §3, §5

[7] = listed as DHEA-derived steroid, sodium salt
[8] = atherosclerosis developed during eight weeks, then 100 micrograms per day per animal for additional eight weeks, vs drinking water
[9] = listed as DHEA-derived S2 steroid

Molecule	atherosclerotic plaque formation / area of atherosclerotic lesion (Oil Red O, whole aorta) [1]	calcification / mineralization of aortic valve (von Kossa) [2]	day of the treatment regime on which the first treated animal died [3]	mouse death before the end of the experiment [3]	survival / mortality of mice [3]	atherosclerotic plaque formation / area of atherosclerotic lesion (Oil Red O, whole aorta) ([1]; sodium salt)	also measured
C[C@]12CC[C@H](O)CC1=CC[C@@H]1[C@@H]2CC[C@]2(C)C(=O)CC[C@@H]12 [DHEA, Dehydroepiandrosterone]	fail to inhibit atherosclerosis; also recorded: did not diminish the development of atherosclerosis; also recorded: not Able to Abrogate Atherosclerotic Plaque Formation	cannot decrease the mineralization of extracellular matrix of aortic valve; also recorded: Failed to Prevent Calcification of Aortic Valve	50 days	45% and 45.5%	elevated mortality rate of the animals	–	–
CCCCCCCCCCCC(=O)OC1CC[C@H]2[C@@H]3CC=C4CC(OS(=O)(=O)[O-])CC[C@]4(C)[C@H]3CC[C@]12C.[Na+] (some centres unmarked) [S2, 17-lauroyloxy-5-androstene-3-sulphate sodium salt]	–	–	–	–	survived	highly efficient both in the prevention and reversal of atherosclerosis	atherosclerotic plaque formation / area of atherosclerotic lesion (Oil Red O, whole aorta) [1, 7]: inhibits atherosclerosis; also recorded: significantly lesser area of atherosclerotic lesion; lower mineralized area of aortic valves calcification nodules compared to tap-water mice ([2]; steroid in drinking water): 91.2%; calcification / mineralization of aortic valve (von Kossa) [2, 7]: decreases the expansion of the extracellular matrix; also recorded: significantly inhibited the development of calcific nodules in aortic valves; H2S content of mice plasma ([4]; ApoE−/− mice, steroid treated vs tap-water): elevates H2S content of the mice plasma; plasma H2S concentration compared to control mice plasma ([4]; ApoE−/− mice, steroid treated vs tap-water, normalized to protein content): approximately 2.4 times; concentration of hydrogen sulfide [4, 8]: significantly higher; already formed atherosclerotic lesion (plaque size, Oil Red O) [5, 9]: reverses atherosclerosis; already formed atherosclerotic lesion (plaque size, Oil Red O) [5]: significantly lesser atherosclerotic lesion; size and number of sclerotic plaques [5, 8]: significantly less; calcification of heart valves [6, 8]: significantly less; already formed aortic valve extracellular matrix mineralization (von Kossa) [6, 9]: reverses atherosclerosis and aortic valve calcification; already formed aortic valve extracellular matrix mineralization (von Kossa) [6]: significant lesser extracellular matrix mineralization
CCCCCC(=O)OC1CC[C@H]2[C@@H]3CC=C4CC(OS(=O)(=O)[O-])CC[C@]4(C)[C@H]3CC[C@]12C.[Na+] (some centres unmarked) [C6, 17-hexanoyloxy-5-androstene-3-sulfate sodium salt]	–	–	–	–	survived	fail to inhibit atherosclerosis; also recorded: not Able to Abrogate Atherosclerotic Plaque Formation	–
Dehydroepiandrosterone sulfate [DHEA-S]	fail to inhibit atherosclerosis; also recorded: not Able to Abrogate Atherosclerotic Plaque Formation	cannot decrease the mineralization of extracellular matrix of aortic valve; also recorded: Failed to Prevent Calcification of Aortic Valve	55 days	22% and 28.6%	elevated mortality rate of the animals	–	atherosclerotic plaque formation / area of atherosclerotic lesion (Oil Red O, whole aorta) ([1]; listed as DHEAS): did not diminish the development of atherosclerosis
CCCCCCCCCCCCCCCC(=O)OC1CC[C@H]2[C@@H]3CC=C4CC(OS(=O)(=O)[O-])CC[C@]4(C)[C@H]3CC[C@]12C.[Na+] (some centres unmarked) [C16, 17-palmitoyloxy-5-androstene-3-sulfate sodium salt]	–	–	–	–	survived	fail to inhibit atherosclerosis; also recorded: not Able to Abrogate Atherosclerotic Plaque Formation	–

Reference: patent US20250171490A1, “DHEA-DERIVED STEROIDS” (DEBRECENI EGYETEM, priority 2022, published 2025)
